{"source": "patent US20160030318A1", "about": "“HIGHLY BIOAVAILABLE Na-ACYL ACIDIC AMINO ACID ESTER SALT COMPOSITONS WITH ZWITTERIONIC SURFACTANTS” (JOHNSON & JOHNSON CONSUMER INC., priority 2014, published 2016)", "key": {"[1]": {"test_system": "Escherichia, Pseudomonas aeruginosa, Proteus vulgarus, Staphylococcus aureus, Bacillus substilis, Candida albicans and Aspergillus niger", "conditions": "disclosed in GB 1352420; cited from earlier work"}, "[2]": {"conditions": "described in JP 57-165305; cited from earlier work"}, "[3]": {"experiment": "Disc Retention Assay (DRA) for LAE bioavailability", "type": "in vitro ADME", "from_the_text": "Procedure for Determining Bioavailability\nLanzalaco. Availability Testing of Cetylpyridinium Chloride Mouthrinses. […] Mar. 19-23, 1997.\nCellulose Filter disks (Schleicher and Schuell #740-E)\n24-well culture plate (Corning 3526)\nVacuum pulled filtration system\n0.1% Acid Fuschin dye solution (w/v)\n20% p-toluenesulfonic acid solution (w/v)\nSpectrophotometer (Molecular Devices—SpectraMAX 190)\n10. […] Vortexed solution.\n12. Read absorbance spectrophotometrically at 545 nm."}}, "data": [{"substance": "N^α-cocoyl-L-arginine methyl ester pyrrolidone carboxylate", "values": [{"measurement": "bactericidal activity", "setting": "[1]", "result": "bactericidal activity"}]}, {"substance": "N^α-cocoyl-L-arginine ethyl ester pyrrolidone carboxylate", "values": [{"measurement": "bacteriocidal activity", "setting": "[2]", "result": "weak bacteriocidal activity"}, {"measurement": "bactericidal activity", "setting": "[1]", "result": "bactericidal activity"}]}, {"substance": "Cocamidopropyl Betaine", "values": [{"measurement": "BA ± SE with LAE", "setting": "[3]", "result": "86.1 ± 2.8", "unit": "%"}, {"measurement": "BA ± SE without LAE", "setting": "[3]", "result": "27.6 ± 15.0", "unit": "%"}, {"measurement": "Impact of surfactant on LAE bioavailability", "setting": "[3]", "result": "did not negatively impact bioavailability"}]}, {"substance": "Poloxamer 407", "values": [{"measurement": "BA ± SE with LAE", "setting": "[3]", "result": "35.9 ± 5.2", "unit": "%"}]}]}
